# Values joined by “and” are separate entries in the source; they are usually repeats but may differ in a detail not shown here. Equal entries are not always repeated. “Also recorded” adds a separate entry of the source.
# Columns and labels:
# [1] = Cell viability / MTT assay; format: cell-based, human; details: human, S10-3 human hepatoma cells
# [2] = system: S10-3 human hepatoma cells; test: Cell viability / MTT assay; format: cell-based; details: highest concentration tolerated by S10-3 cells, MTT, 120 h
# HEV-1 [3] = test: HEV-1 subgenomic replicon Renilla luciferase assay in S10-3 cells; format: cell-based, Hepatitis E virus; details: for HEV-1 inhibition (%): subgenomic replicon, at MNTD: RBV 3.12 µM, CQ 0.06 µM, HCQ 0.78 µM, ART 23.43 µM, 48 h
# HEV-1 [4] = test: ORF2 protein expression by immunofluorescence assay and western blot; format: cell-based, Hepatitis E virus; details: IFA and western blot, 72 h and 96 h post-transfection, RBV 3.1 µM, ART 23.4 µM
# HEV-1 helicase = biological target: T1, HEV-1 helicase (Hepatitis E virus genotype 1, UniProt P33424); test: Colorimetric ATPase assay of recombinant helicase; format: biochemical
# T1 sequence (P33424 960-1204): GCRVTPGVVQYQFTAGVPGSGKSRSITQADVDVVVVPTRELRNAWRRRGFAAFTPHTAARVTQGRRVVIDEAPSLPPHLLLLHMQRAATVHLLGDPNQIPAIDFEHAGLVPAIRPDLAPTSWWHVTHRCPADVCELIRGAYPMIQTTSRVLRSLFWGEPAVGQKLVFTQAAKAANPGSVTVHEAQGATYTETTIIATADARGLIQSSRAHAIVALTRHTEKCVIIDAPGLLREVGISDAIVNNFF
# HEV-1 RdRp = biological target: T2, HEV-1 RdRp (Hepatitis E virus genotype 1, UniProt P33424); test: Colorimetric RdRp polymerase assay; format: biochemical
# T2 sequence (P33424 1199-1693 limits assumed): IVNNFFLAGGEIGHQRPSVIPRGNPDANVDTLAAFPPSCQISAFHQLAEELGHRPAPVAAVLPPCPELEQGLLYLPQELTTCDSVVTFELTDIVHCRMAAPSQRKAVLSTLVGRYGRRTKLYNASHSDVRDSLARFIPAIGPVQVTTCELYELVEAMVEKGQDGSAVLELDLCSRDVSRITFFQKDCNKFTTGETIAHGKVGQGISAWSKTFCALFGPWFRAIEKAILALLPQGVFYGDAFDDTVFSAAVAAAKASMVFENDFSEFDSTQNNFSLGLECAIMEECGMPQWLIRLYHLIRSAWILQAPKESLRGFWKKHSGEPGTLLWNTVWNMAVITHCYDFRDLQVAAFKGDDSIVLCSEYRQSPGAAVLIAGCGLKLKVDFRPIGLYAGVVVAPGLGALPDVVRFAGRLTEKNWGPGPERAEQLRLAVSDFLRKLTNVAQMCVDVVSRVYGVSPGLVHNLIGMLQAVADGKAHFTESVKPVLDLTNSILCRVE
# [5] = oral administration; cited from earlier work
# [6] = in silico toxicity studies, cited from earlier work
smiles,measurement,setting,value
"C[C@H]1[C@H](OC(=O)CCC(=O)O)O[C@@H]2O[C@@]3(C)CC[C@H]4[C@H](C)CC[C@@H]1[C@@]24OO3 [ART, artesunate]",CC50 at 120 h,[1],189 ± 14.1 µM
same,"MNTD, maximum nontoxic dose",[2],23.43 µM
same,"TI for HEV-1, therapeutic index (CC50/EC50)",HEV-1 [3]; CC50/EC50,9.68
same,HEV-1 inhibition (%),HEV-1 [3],> 50%
same,ORF2 protein levels,HEV-1 [4],decreased ORF2 levels; also recorded: reduced ORF2 expression significantly
same,Reversibility of helicase inhibition,HEV-1 helicase,reversible
same,Helicase ATPase activity inhibition (%),"HEV-1 helicase; 4.8 µM ART, 100 µM ATP",23%
same,Helicase ATPase activity inhibition (%),"HEV-1 helicase; 78 µM ART, 100 µM ATP",55% and ~ 55%
same,Mode of inhibition of helicase ATPase,HEV-1 helicase; ATP pretreatment assay,competitive inhibitor
same,Mode of inhibition of helicase ATPase,HEV-1 helicase; enzyme pretreated with ART,noncompetitive inhibitor
same,ATPase activity (%),"HEV-1 helicase; helicase pre-incubated with 19.5 µM ART 30 min, 50 µM ATP",62%
same,ATPase activity (%),"HEV-1 helicase; helicase pre-incubated with 19.5 µM ART 30 min, 100 µM ATP",75%
same,ATPase activity (%),"HEV-1 helicase; helicase pre-incubated with ATP 30 min before 19.5 µM ART, 50 µM ATP",~ 79%
same,ATPase activity (%),"HEV-1 helicase; helicase pre-incubated with ATP 30 min before 19.5 µM ART, 100 µM ATP",86%
same,RdRp polymerase activity inhibition (%),HEV-1 RdRp; 4.8 µM ART,38%
same,RdRp polymerase activity inhibition (%),HEV-1 RdRp; 78 µM ART,40%
same,Elimination half-life,[5],21 to 72 min
same,Tmax,[5],less than one hour
same,"Mutagenic, tumorigenic and hepatotoxic potential",[6]; if used in high doses for a long time,"moderately mutagenic, tumorigenic, and hepatotoxic"
same,Risk of reproductive or developmental toxicity,[6],no risk
"NC(=O)c1ncn([C@@H]2O[C@H](CO[P@@](=O)(O)O[P@](=O)(O)OP(=O)(O)O)[C@@H](O)[C@H]2O)n1 [RTP, Ribavirin triphosphate]",CC50 at 120 h,[1],169 ± 1.6 µM
same,"MNTD, maximum nontoxic dose",[2],7.8 µM
same,Helicase ATPase activity inhibition (%),"HEV-1 helicase; 3.5 µM RTP, 100 µM ATP",22%
same,inhibition at 28 µM,"HEV-1 RdRp; read-out: RdRp polymerase activity inhibition (%), 28 µM RTP (maximum)",28%
"CCN(CC)CCCC(C)Nc1ccnc2cc(Cl)ccc12 (stereo not shown) [CQ, chloroquine]",CC50 at 120 h,[1],4.77 ± 0.74 µM
same,"MNTD, maximum nontoxic dose",[2],0.06 µM
same,HEV-1 inhibition (%),HEV-1 [3],23 ± 2%
"CCN(CCO)CCCC(C)Nc1ccnc2cc(Cl)ccc12 (stereo not shown) [HCQ, hydroxychloroquine]","MNTD, maximum nontoxic dose",[2],0.78 µM
"NC(=O)c1ncn([C@@H]2O[C@H](CO)[C@@H](O)[C@H]2O)n1 [RBV, ribavirin]",CC50 at 120 h,[1],39 ± 5.9 µM
same,"MNTD, maximum nontoxic dose",[2],3.12 µM
same,ORF2 protein levels,HEV-1 [4],decreased ORF2 levels; also recorded: reduced ORF2 expression significantly
